Experimental data: ChEMBL document CHEMBL1131296 (J Med Chem, 1998)

Target: T1, Alpha-1D adrenergic receptor (Homo sapiens, UniProt P25100)
T1 sequence (P25100 whole entry): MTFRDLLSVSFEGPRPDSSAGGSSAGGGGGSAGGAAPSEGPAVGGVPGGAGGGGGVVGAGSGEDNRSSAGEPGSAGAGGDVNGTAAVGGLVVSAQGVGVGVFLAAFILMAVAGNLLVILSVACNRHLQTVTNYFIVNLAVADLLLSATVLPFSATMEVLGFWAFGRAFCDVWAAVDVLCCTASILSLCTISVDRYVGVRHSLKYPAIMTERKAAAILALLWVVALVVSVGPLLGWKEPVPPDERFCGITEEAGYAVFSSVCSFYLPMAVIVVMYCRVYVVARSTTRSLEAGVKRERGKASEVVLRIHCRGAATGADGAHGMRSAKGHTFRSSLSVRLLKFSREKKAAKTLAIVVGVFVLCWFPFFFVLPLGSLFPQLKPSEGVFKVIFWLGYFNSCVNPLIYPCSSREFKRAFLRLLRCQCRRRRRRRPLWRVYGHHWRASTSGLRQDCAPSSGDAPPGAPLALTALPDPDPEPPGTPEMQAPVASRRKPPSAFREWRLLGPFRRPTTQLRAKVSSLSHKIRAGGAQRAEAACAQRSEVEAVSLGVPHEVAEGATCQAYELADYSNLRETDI
Experiment: Binding affinity at human cloned Alpha-1D adrenergic receptor in chinese hamster ovary cells by [3H]prazosin displacement.
Format: cell-based, CHO

With COc1cc2nc(N(C)CCCCCCN(C)C(=O)c3cccc(CN(C)C)c3)nc(N)c2cc1OC the Ki was 245 pM.
